The values that follow come from patent publication US20060211700A1, “(R)-8,9-dichloro-2,3,4,4a-tetrahydro-1H,6H-pyrazino[1,2-a]quinoxalin-5-one for controlling IOP and treating glaucoma” (Alcon, Inc., priority 2005, published 2006).

The target in assay [1] is T1, human serotonin receptor clone 5-HT2A (Homo sapiens, UniProt P28223).
T1 construct: expressed in transfected cells; host or cells: CHO-K1
In words: In vitro functional response (aequorin luminescence) in CHO-K1 cells expressing 5-HT2A. Type of assay: cell-based. As to conditions: for Emax: CHO-K1, relative to the response of α-methyl-5-HT; for EC50: CHO-K1 cells, aequorin, Gα16. As to the method: (§1) In Vitro Functional Response at 5-HT2 Receptors
(§2) Functional response at the 5-HT2 receptor subtypes was determined using CHO-K1 cells stably expressing mitochondrially-targeted bioluminescent aequorin, Gα16, and one of either human serotonin receptor clone 5-HT2A, 5-HT2B, or 5-HT2C. Prior to testing, cells were loaded in suspension with coelenterazine for 4-16 hours and directly injected onto different concentrations of the test compound. Light emitted from the cells was measured 20-30 seconds following receptor activation. A luminometer was used to record luminescence in response to the test compound. The mean response signal at each of 8-11 different concentrations was integrated to provide an estimation of receptor activation, expressed as the EC50 value. The efficacy of the response (Emax) at the 5-HT2A and 5-HT2B receptors is expressed relative to the response of α-methyl-5-HT under the same assay conditions while the efficacy at 5-HT2C is expressed relative to the response of 5-HT.

Assay [2] addresses T2, human serotonin receptor clone 5-HT2C (Homo sapiens, UniProt P28335).
T2 construct: expressed in transfected cells; host or cells: CHO-K1
T2 sequence (P28335 33-458): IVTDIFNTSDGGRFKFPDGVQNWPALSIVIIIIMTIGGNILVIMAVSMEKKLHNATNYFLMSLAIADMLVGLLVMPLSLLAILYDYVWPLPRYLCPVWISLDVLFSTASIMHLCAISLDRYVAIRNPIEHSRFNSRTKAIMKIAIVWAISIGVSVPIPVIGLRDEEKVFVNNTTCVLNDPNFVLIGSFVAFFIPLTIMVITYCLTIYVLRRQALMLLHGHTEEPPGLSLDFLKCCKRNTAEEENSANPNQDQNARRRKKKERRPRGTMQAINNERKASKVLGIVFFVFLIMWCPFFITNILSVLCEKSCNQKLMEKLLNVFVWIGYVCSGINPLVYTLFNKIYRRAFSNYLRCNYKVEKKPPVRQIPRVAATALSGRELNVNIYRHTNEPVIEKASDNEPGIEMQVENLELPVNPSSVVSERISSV
In words: In vitro functional response (aequorin luminescence) in CHO-K1 cells expressing 5-HT2C. Type of assay: cell-based. As to conditions: for Emax: CHO-K1, relative to the response of 5-HT; for EC50: CHO-K1 cells, aequorin, Gα16. As to the method:
as §1, §2

The target in assay [3] is T3, human serotonin receptor clone 5-HT2B (Homo sapiens, UniProt P41595).
T3 construct: expressed in transfected cells; host or cells: CHO-K1
T3 sequence (P41595 whole entry): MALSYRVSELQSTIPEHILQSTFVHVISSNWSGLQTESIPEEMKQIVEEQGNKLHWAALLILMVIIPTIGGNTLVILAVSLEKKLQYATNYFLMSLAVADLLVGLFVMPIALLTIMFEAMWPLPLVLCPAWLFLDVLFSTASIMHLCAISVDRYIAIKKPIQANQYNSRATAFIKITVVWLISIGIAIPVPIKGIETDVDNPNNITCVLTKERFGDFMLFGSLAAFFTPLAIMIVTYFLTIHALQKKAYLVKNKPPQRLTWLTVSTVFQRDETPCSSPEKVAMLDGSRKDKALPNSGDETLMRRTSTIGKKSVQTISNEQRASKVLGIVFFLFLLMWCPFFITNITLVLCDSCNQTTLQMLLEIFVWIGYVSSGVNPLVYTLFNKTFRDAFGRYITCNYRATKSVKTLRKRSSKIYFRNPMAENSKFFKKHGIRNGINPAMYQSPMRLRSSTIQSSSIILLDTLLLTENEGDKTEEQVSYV
In words: In vitro functional response (aequorin luminescence) in CHO-K1 cells expressing 5-HT2B. Type of assay: cell-based. Conditions: for Emax: CHO-K1, relative to the response of α-methyl-5-HT; for EC50: CHO-K1 cells, aequorin, Gα16. As to the method:
as §1, §2

The test system of assay [4] is lasered (hypertensive) eyes of conscious cynomolgus monkeys. In words: Acute IOP response in lasered (hypertensive) eyes of conscious cynomolgus monkeys. Type of assay: in vivo, cynomolgus monkey. As to conditions: for IOP % change / IOP Change mmHg: lasered eye; for IOP lowering efficacy (in words): dosed at 300 μg. The method, then: Acute IOP Response in Lasered (Hypertensive) Eyes of Conscious Cynomolgus Monkeys
Intraocular pressure (IOP) can be determined with an Alcon Pneumatonometer after light corneal anesthesia with 0.1% proparacaine. Eyes are washed with saline after each measurement. After a baseline IOP measurement, test compound is instilled in one 30 μL aliquot to the right eyes only of nine cynomolgus monkeys. Vehicle is instilled in the right eyes of six additional animals. Subsequent IOP measurements are taken at 1, 3, and 6 hours.
The above method was used to determine the IOP lowering efficacy of 8,9-dichloro-2,3,4,4a-tetrahydro-1H,6H-pyrazino[1,2-a]quinoxalin-5-one when dosed at 300 μg.
The same method was used to evaluate the IOP lowering ability of the R enantiomer of the Compound (substantially free of the S enantiomer), dosed at 300 μg.

Another assay has as its target T4, 5-HT2C receptor (Homo sapiens, UniProt P28335).
T4 sequence (P28335 33-458): T2 sequence (P28335 33-458)
Conditions: R enantiomer versus S enantiomer; cited from earlier work.

[5] abbreviates: 1 hr after topical dose of 300 μg (one 30 μL aliquot).
[6] abbreviates: 3 hrs after topical dose of 300 μg (one 30 μL aliquot).
[7] abbreviates: 6 hrs after topical dose of 300 μg (one 30 μL aliquot).

A word on the Emax: it is the size of the effect at its maximum, as opposed to the concentration needed. Broadly, the EC50 is the concentration that produces a half-maximal response. A low value points to greater potency.

T1 sequence (P28223 whole entry): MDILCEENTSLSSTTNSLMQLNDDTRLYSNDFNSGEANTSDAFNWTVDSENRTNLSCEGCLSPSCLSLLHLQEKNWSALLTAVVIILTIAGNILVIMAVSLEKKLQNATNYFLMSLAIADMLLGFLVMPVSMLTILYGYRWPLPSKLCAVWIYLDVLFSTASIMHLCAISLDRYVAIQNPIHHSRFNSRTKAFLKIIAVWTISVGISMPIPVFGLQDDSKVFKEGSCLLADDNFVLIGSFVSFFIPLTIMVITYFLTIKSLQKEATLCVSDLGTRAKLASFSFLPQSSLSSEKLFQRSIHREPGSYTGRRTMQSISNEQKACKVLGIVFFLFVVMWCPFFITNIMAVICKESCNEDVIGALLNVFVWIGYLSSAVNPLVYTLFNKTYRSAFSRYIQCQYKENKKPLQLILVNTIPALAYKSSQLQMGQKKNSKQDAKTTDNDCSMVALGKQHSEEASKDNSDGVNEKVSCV

As to `O=C1Nc2cc(Cl)c(Cl)cc2N2CCNCC12` (racemic) [Racemic, 8,9-dichloro-2,3,4,4a-tetrahydro-1H,6H-pyrazino[1,2-a]quinoxalin-5-one], the maximum response (Emax) in assay [1] worked out at 112%; in assay [2] it was 105%; in assay [3] it was 98%. The values for the 50% effective concentration (EC50) in assay [1], in assay [2] and in assay [3] were 37.5 nM, 4.2 nM and 76.8 nM, respectively. Moreover, the IOP % change in assay [4] (setting [5]) is given as −5.7%; in assay [4] (setting [6]), −21.9%; in assay [4] (setting [7]) it was −29.3%. For the same compound, the “IOP Change mmHg” value in assay [4] (setting [5]) is on record as −2.8 mmHg; in assay [4] (setting [6]), −9.6 mmHg; in assay [4] (setting [7]), −12.8 mmHg. Besides, the “IOP lowering efficacy (in words)” value in assay [4] is on record as “significant decrease in IOP”.

With `O=C1Nc2cc(Cl)c(Cl)cc2N2CCNC[C@H]12` [R enantiomer, (R)-8,9-dichloro-2,3,4,4a-tetrahydro-1H,6H-pyrazino[1,2-a]quinoxalin-5-one], the Emax in assay [1] is 108%; in assay [2] it was 108%; in assay [3], 99%. The EC50 is 20.5 nM in assay [1], 2.6 nM in assay [2] and 31.6 nM in assay [3]. For the same compound, the “potency relative to the S enantiomer at the 5-HT2C receptor” value on 5-HT2C receptor is given as “approximately 40 fold”. Moreover, the IOP % change in assay [4] (setting [5]) is −12.9%; in assay [4] (setting [6]), −26.3%; in assay [4] (setting [7]) it was −34.7%. Moreover, the “IOP Change mmHg” value in assay [4] (setting [5]) is −5.8 mmHg; in assay [4] (setting [6]), −11.7 mmHg; in assay [4] (setting [7]), −15.0 mmHg. The “IOP lowering efficacy (in words)” value in assay [4] is “significant decrease in IOP”.

Take `O=C1Nc2cc(Cl)c(Cl)cc2N2CCNC[C@@H]12` [S enantiomer]: the Emax in assay [1] stood at 96%; in assay [2], 105%; in assay [3] it was 45%. Further, the EC50 in assay [1] was 2260 nM; in assay [2], 614 nM; in assay [3] it was 2540 nM.
